Data set [1] concerns the target T1, human CRF1 receptor (Homo sapiens, UniProt P34998).
T1 construct: expressed in transfected cells; host or cells: CHO cells (membrane fraction)
T1 sequence (P34998 24-415): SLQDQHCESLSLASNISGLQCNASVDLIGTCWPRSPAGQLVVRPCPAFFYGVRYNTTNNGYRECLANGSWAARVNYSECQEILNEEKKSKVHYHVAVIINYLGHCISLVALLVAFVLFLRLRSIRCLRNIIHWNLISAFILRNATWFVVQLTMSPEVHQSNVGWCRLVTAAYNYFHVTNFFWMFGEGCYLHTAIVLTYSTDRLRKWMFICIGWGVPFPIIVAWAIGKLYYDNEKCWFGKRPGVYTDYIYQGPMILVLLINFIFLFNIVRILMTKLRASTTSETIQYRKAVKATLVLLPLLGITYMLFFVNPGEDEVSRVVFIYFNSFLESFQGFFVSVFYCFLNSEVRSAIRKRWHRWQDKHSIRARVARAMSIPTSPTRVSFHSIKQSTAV
Put plainly: Measurement of CRF Binding Inhibitory Rate (receptor binding experiment with 125I-CRF). Particulars: human CRF1 receptor expressing CHO cellular membrane fraction, 50 pM 125I-CRF, room temperature 1.5 hr, 0.05 nM to 10 μM of compound; read-out: IC50 values (CRF binding inhibition).

Where only a bound is given, the exact number is not on record here.

`COC(C)(C)c1ccc(Cl)c2nc3n(c12)CCCN3c1ccc(Cl)cc1Cl` [Example 109, 9-Chloro-1-(2,4-dichlorophenyl)-6-(1-methoxy-1-methylethyl)-1,2,3,4-tetrahydropyrimido[1,2-a]benzimidazole]: the melting point (as a rule, the temperature of the solid-liquid transition) is 203 to 204 °C. The 50% inhibitory concentration (IC50) (commonly the concentration that gives 50% inhibition) in data set [1] was below 1 µM.
On the same counts, the results for `COC(c1cccc2nc3n(c12)CCCN3c1ccc(Cl)cc1Cl)C(F)(F)F` (stereo not shown) [Example 202, 1-(2,4-Dichlorophenyl)-6-(2,2,2-trifluoro-1-methoxyethyl)-1,2,3,4-tetrahydropyrimido[1,2-a]benzimidazole] are 164 to 165 °C and below 1 µM.
As for `CCOC(CC)c1ccc(Cl)c2nc3n(c12)CCCN3c1cnc(N(C)C)cc1C` (stereo not shown) [Example 156, 5-[9-Chloro-6-(1-ethoxypropyl)-3,4-dihydropyrimido[1,2-a]benzimidazol-1(2H)-yl]-N,N,4-trimethylpyridin-2-amine], the melting point was in the range of 179 to 180 °C. Also, in data set [1], the IC50 was below 1 µM.
Turning to `CCC(OC(C)=O)c1ccc(Cl)c2nc3n(c12)CCN3c1c(C)cc(Cl)cc1Cl` (stereo not shown) [Example 437, 1-[8-Chloro-1-(2,4-dichloro-6-methylphenyl)-2,3-dihydro-1H-imidazo[1,2-a]benzimidazol-5-yl]propyl acetate], the melting point was 190 to 192 °C. Also, in data set [1], the IC50 is below 1 µM.
`CCC(CC)c1ccc(Cl)c2nc3n(c12)CCCCN3c1ncc(C(N)=O)cc1C` [Example 340, 6-[10-Chloro-7-(1-ethylpropyl)-2,3,4,5-tetrahydro-1H-[1,3]diazepino[1,2-a]benzimidazol-1-yl]-5-methylpyridine-3-carboxamide] registered a melting point of 234 to 235 °C. Moreover, the IC50 in data set [1] was below 1 µM.
Consider `CCC(CC)c1ccc(Cl)c2nc3n(c12)CCN3c1ccc(C(N)=O)cc1Cl` [Example 15, 3-Chloro-4-[8-chloro-5-(1-ethylpropyl)-2,3-dihydro-1H-imidazo[1,2-a]benzimidazol-1-yl]benzamide], for which the melting point lay in the range of 225 to 229 °C. In addition, the half-maximal inhibitory concentration (IC50) in data set [1] is below 1 µM.
As to `CCC(CCO)c1ccc(Cl)c2nc3n(c12)CCCN3c1ccc(Cl)cc1Cl` (stereo not shown) [Example 450, 3-[9-Chloro-1-(2,4-dichlorophenyl)-1,2,3,4-tetrahydropyrimido[1,2-a]benzimidazol-6-yl]pentan-1-ol], the melting point is 183 to 185 °C. The IC50 in data set [1] is below 1 µM.
As to `COc1ccc(N2CCCn3c2nc2c(Cl)ccc(C(OCC(F)(F)F)C4CC4)c23)c(C)n1` (stereo not shown) [Example 277, 9-Chloro-6-[cyclopropyl (2,2,2-trifluoroethoxy)methyl]1-(6-methoxy-2-methylpyridin-3-yl)-1,2,3,4-tetrahydropyrimido[1,2-a]benzimidazole], the melting point lay within 158 to 160 °C. In addition, in data set [1], the half-maximal inhibitory concentration (IC50) is below 1 µM.
Take `COC(c1cccc2nc3n(c12)CCCN3c1ccc(Cl)cc1Cl)C1CC1` (stereo not shown) [Example 200, 6-[Cyclopropyl(methoxy)methyl]-1-(2,4-dichlorophenyl)-1,2,3,4-tetrahydropyrimido[1,2-a]benzimidazole]: the melting point is 118 to 119 °C. In data set [1], the IC50 was below 1 µM.
On the same counts, the results for `Cc1nc(C2CC2)nc(C)c1N1CCCn2c1nc1c(Cl)ccc(C(OC(F)F)C(F)(F)F)c12` (stereo not shown) [Example 218, 9-Chloro-1-(2-cyclopropyl-4,6-dimethylpyrimidin-5-yl)-6-[1-(difluoromethoxy)-2,2,2-trifluoroethyl]-1,2,3,4-tetrahydropyrimido[1,2-a]benzimidazole] are 191 to 193 °C and below 1 µM.
As for `O=C(OC(c1ccc(Cl)c2nc3n(c12)CCCN3c1ccc(Cl)cc1Cl)C1CC1)C1CC1` (stereo not shown) [Example 478, 1-[9-Chloro-1-(2,4-dichlorophenyl)-1,2,3,4-tetrahydropyrimido[1,2-a]benzimidazol-6-yl](cyclopropyl)methyl cyclopropanecarboxylate], the melting point is 168 to 170 °C. For the same compound, the IC50 in data set [1] was below 1 µM.

Values taken from patent US8785460B2, “Tricyclic compounds and use thereof” (Takeda Pharmaceutical Company Limited, priority 2008, dated 2014).
